Measurements as given in patent US20230047569A1, “PESTICIDAL COMPLEX COMPOSITIONS FOR SYNERGISTIC DELIVERY OF PESTICIDAL ACTIVE INGREDIENTS AND METHODS OF SELECTION THEREOF” (0903608 B.C. Ltd., priority 2019, published 2023).

Experiments:
[1] = system: Trichoplusia ni; test: In-planta insecticidal efficacy on sprayed green cabbage plants (Abbott and Colby formulas); assay type: in vivo; settings: 6 days; for Survival Rate (%): Coragen […] (0.104 ppm chlorantraniliprole) and/or aliphatic acid 750 ppm, 10% isopropanol; for Observed Efficacy, W (%): Coragen […] and/or aliphatic acid 750 ppm, Abbott corrected vs 10% isopropanol control
Protocol: Water and 10% isopropanol were tested as control treatments.
Green cabbage plants (Brassica oleracea var. capitate, Danish Ballhead cultivar) were grown from seed (available from West Coast Seeds, Delta, BC, Canada) in potting soil for 4-6 weeks in a pest-free indoor growing environment. At between 4-6 weeks of age, each cabbage plant was sprayed with 20 mL of treatment solution using a pressurized CO2 sprayer from approximately 18 inches above the plant, and allowed to dry.
While for SF<1, antagonism is present and for SF=1, the efficacy of the compounds is merely additive.

[2] = Solubility / effective solubilized concentration in 10% DMSO/90% PDB by HPLC; settings: working stock: DMSO stock diluted 10-fold in PDB
Protocol: This solution was diluted 10-fold in potato dextrose broth (PDB) to give a concentration of 0.05 mg/mL in 10% DMSO/90% PDB.
Concentrated stock solutions were prepared by dissolving pesticidal active ingredient in 100% dimethylsulfoxide (DMSO), which were then diluted 10-fold in potato dextrose broth (PDB) to give a working stock solution, as described below: […]

SMILES | Survival Rate (%) [1] [%] | Observed Efficacy, W (%) [1] [%] | effective solubilized concentration [2] [mg/mL]
CCC(C)CCC(=O)O (stereo not shown) [4-methylhexanoic acid] | 62.50 | 2.34 | 
CCC(N)C(=O)O (stereo not shown) [2-aminobutyric acid] | 58.50 | 8.59 | 
CO/C=C(/C(=O)OC)c1ccccc1Oc1cc(Oc2ccccc2C#N)ncn1 [Azoxystrobin, azoxystrobin] |  |  | 0.15
O=C(O)CCCCCCCCCO [10-hydroxydecanoic acid] | 40.50 | 36.72 | 
